Assay results published in US10703765B2 (priority 2014, dated 2020).
pKi: −log10 of the molar value. Structures can show the parent of a compound that is named as a salt. Where two headings read alike, the source gives them in different places.

Target: human σ1 receptor (Homo sapiens, UniProt Q99720)
Assay: biochemical
Assay type: binding
Set-up: μ and σ1 dual binding: key to the marks not given beside the values
[1] = read-out: μ and σ1 dual binding
[2] = combined class from Ki-σ1 (human σ1 receptor, A1) and Ki-μ (human μ-opioid receptor, A2) radioligand binding

Sequence of human σ1 receptor (Q99720 whole entry): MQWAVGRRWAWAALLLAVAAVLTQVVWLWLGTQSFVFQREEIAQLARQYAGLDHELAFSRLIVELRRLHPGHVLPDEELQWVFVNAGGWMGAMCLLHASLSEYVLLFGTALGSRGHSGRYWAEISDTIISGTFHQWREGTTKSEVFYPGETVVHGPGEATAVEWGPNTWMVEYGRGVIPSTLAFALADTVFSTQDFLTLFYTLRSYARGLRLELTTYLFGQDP

`COc1ccccc1CCN1CCC2(CC1)CN(Cc1ccccn1)CCO2` [Example 326, 9-(2-methoxyphenethyl)-4-(pyridin-2-ylmethyl)-1-oxa-4,9-diazaspiro[5.5]undecane] was tested, and the pKi [1] was over 6.30.

Molecule `CC1CN(Cc2nccn2C)CC2(CCN(CCc3ccccc3)CC2)O1` (stereo not drawn) [Example 327, 2-methyl-4-((1-methyl-1H-imidazol-2-yl)methyl)-9-phenethyl-1-oxa-4,9-diazaspiro[5.5]undecane dihydrochloride] has a pKi [1] of over 6.30.

In the case of `CC1CN(Cc2ccn(C)n2)CC2(CCN(CCc3ccccc3)CC2)O1` (stereo not drawn) [Example 328, 2-methyl-4-((1-methyl-1H-pyrazol-3-yl)methyl)-9-phenethyl-1-oxa-4,9-diazaspiro[5.5]undecane dihydrochloride], the “μ and σ1 dual binding” value was “++”.

Molecule `Oc1ccccc1CCN1CCC2(CC1)CN(Cc1ccccn1)CCO2` [Example 329, 2-(2-(4-(pyridin-2-ylmethyl)-1-oxa-4,9-diazaspiro[5.5]undecan-9-yl)ethyl)phenol hydrochloride] has a pKi [1] of over 7.00.

`CC1CN(Cc2ccccn2)CC2(CCN(CCc3ccccc3)CC2)O1` (stereo not drawn) [Example 330, 2-methyl-9-phenethyl-4-(pyridin-2-ylmethyl)-1-oxa-4,9-diazaspiro[5.5]undecane hydrochloride] showed a pKi [1] of over 7.00.

In the case of `CC1CN(CCc2cccnc2)CC2(CCN(CCc3ccccc3)CC2)O1` (stereo not drawn) [Example 331, 2-methyl-9-phenethyl-4-(2-(pyridin-3-yl)ethyl)-1-oxa-4,9-diazaspiro[5.5]undecane hydrochloride], the “μ and σ1 dual binding” value was “++”.

For `COc1ccc(CCN2CCC3(CC2)CN(c2ccccc2)CCO3)cc1` [Example 332, 9-(4-methoxyphenethyl)-4-phenyl-1-oxa-4,9-diazaspiro[5.5]undecane], the “μ and σ1 dual binding” value [2] was “++”.

`COc1cccc(N2CCOC3(CCN(CCc4ccccc4)CC3)C2)c1.Cl` [Example 333, 4-(3-methoxyphenyl)-9-phenethyl-1-oxa-4,9-diazaspiro[5.5]undecane hydrochloride] was tested, and the “μ and σ1 dual binding” value was “++”.

In the case of `COc1ccccc1CCN1CCC2(CC1)CN(c1ccccc1)CCO2.Cl` [Example 334, 9-(2-methoxyphenethyl)-4-phenyl-1-oxa-4,9-diazaspiro[5.5]undecane hydrochloride], the “μ and σ1 dual binding” value was “++”.

In the case of `CC1CN(Cc2ccccc2)CC2(CCN(CCc3ccccc3)CC2)O1` (stereo not drawn) [Example 335, 4-benzyl-2-methyl-9-phenethyl-1-oxa-4,9-diazaspiro[5.5]undecane dihydrochloride], the pKi [1] was over 7.00.

`c1ccc(CCN2CCC3(CC2)CN(Cc2ccccn2)CCO3)cc1` [Example 336, 9-phenethyl-4-(pyridin-2-ylmethyl)-1-oxa-4,9-diazaspiro[5.5]undecane dihydrochloride] showed a pKi [1] of over 7.00.

`c1ccc(CCN2CCC3(CC2)CN(CCc2ccccc2)CCO3)cc1` [Example 337, 4,9-diphenethyl-1-oxa-4,9-diazaspiro[5.5]undecane dihydrochloride] was tested, and the “μ and σ1 dual binding” value was “++”.

`Nc1cccc(CCN2CCC3(CC2)CN(Cc2ccccc2)CCO3)c1` [Example 338, 3-(2-(4-benzyl-1-oxa-4,9-diazaspiro[5.5]undecan-9-yl)ethyl)aniline] was tested, and the pKi [1] was under 6.30.

Work on `CC(=O)Nc1cccc(CCN2CCC3(CC2)CN(Cc2ccccc2)CCO3)c1` [Example 339, N-(3-(2-(4-benzyl-1-oxa-4,9-diazaspiro[5.5]undecan-9-yl)ethyl)phenyl)acetamide] yielded a pKi [1] of over 7.00.

Molecule `CC1COC2(CCN(CCc3ccccc3)CC2)CN1c1ccccc1` (stereo not drawn) [Example 340, 3-methyl-9-phenethyl-4-phenyl-1-oxa-4,9-diazaspiro[5.5]undecane hydrochloride] has a pKi of over 6.30.

With `O=C1N(c2cccnc2C(F)(F)F)CC2(CCN(CCc3cc(F)ccc3F)CC2)OC12CC2` [Example 341, 8-(2,5-difluorophenethyl)-12-(2-(trifluoromethyl)pyridin-3-yl)-4-oxa-8,12-diazadispiro[2.1.5.3]tridecan-13-one] the “μ and σ1 dual binding” value [2] was “++”.

`O=C1N(c2cnccc2C(F)(F)F)CC2(CCN(CCc3cc(F)ccc3F)CC2)OC12CC2` [Example 342, 8-(2,5-difluorophenethyl)-12-(4-(trifluoromethyl)pyridin-3-yl)-4-oxa-8,12-diazadispiro[2.1.5.3]tridecan-13-one] gave a pKi [1] of over 6.30.

`O=C1N(c2ncccc2C(F)(F)F)CC2(CCN(CCc3cc(F)ccc3F)CC2)OC12CC2` [Example 343, 8-(2,5-difluorophenethyl)-12-(3-(trifluoromethyl)pyridin-2-yl)-4-oxa-8,12-diazadispiro[2.1.5.3]tridecan-13-one] showed a pKi [1] of over 6.30.

`Fc1cccnc1CCN1CCC2(CC1)CN(Cc1ccccc1)CC1(CC1)O2` [Example 344, 12-benzyl-8-(2-(3-fluoropyridin-2-yl)ethyl)-4-oxa-8,12-diazadispiro[2.1.5.3]tridecane] gave a pKi [1] of over 7.00.

`COC(=O)CCN1CCC2(CC1)CN(Cc1ccccc1)C(=O)C1(CC1)O2` [Example 346, methyl 3-(12-benzyl-13-oxo-4-oxa-8,12-diazadispiro[2.1.5.3]tridecan-8-yl)propanoate] was tested, and the “μ and σ1 dual binding” value [2] was “++”.

For `COC(=O)CCN1CCC2(CC1)CN(Cc1ccccc1)CC1(CC1)O2` [Example 347, methyl 3-(12-benzyl-4-oxa-8,12-diazadispiro[2.1.5.3]tridecan-8-yl)propanoate], the pKi was over 6.30.

Work on `COC(=O)CCN1CCC2(CC1)CN(c1ccccc1)C(=O)C1(CC1)O2` [Example 348, methyl 3-(13-oxo-12-phenyl-4-oxa-8,12-diazadispiro[2.1.5.3]tridecan-8-yl)propanoate] yielded a pKi [1] of under 6.30.

With `O=C1CO[C@@]2(CCN(Cc3ccccc3)C2)CN1c1ccccc1` [Example 349, (R)-2-benzyl-9-phenyl-6-oxa-2,9-diazaspiro[4.5]decan-8-one] the pKi [1] was under 6.30.

In the case of `O=C1CO[C@]2(CCN(Cc3ccccc3)C2)CN1c1ccccc1` [Example 350, (S)-2-benzyl-9-phenyl-6-oxa-2,9-diazaspiro[4.5]decan-8-one], the pKi [1] was under 6.30.
